Results from patent publication US20250170248A1, “SMARCA DEGRADERS AND USES THEREOF” (Kymera Therapeutics, Inc., priority 2021, published 2025).

Columns and labels:
Format in all cases: cell-based
SMARCA2 [1] = target: T1, SMARCA2 (Homo sapiens, UniProt P51531); test: MSD SMARCA2 degradation in A549 cell line; conditions: for Dmax: A549, A549 cells; for Dmax / DC50: 24 h; for DC50: read-out: SMARCA2 MSD A549 degradation 24 h: Average external-Abs DC50
How it was run: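 A549 cells treated 24 h with compound, 3-fold series from 1000 nM. Lysates captured on MSD plates and SMARCA2 quantified with anti-SMARCA2 and SULFO-TAG secondary antibodies (electrochemiluminescence). DC50 and Dmax (% degradation at 24 h) reported as letter bins.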

SMARCA4 = target: T2, SMARCA4 (Homo sapiens, UniProt P51532); test: SMARCA4 Western blot degradation in MV4-11 cells; conditions: for Dmax: MV4-11, MV4-11 cells, read-out: SMARCA4 MSD MV411 degradation 24 h: average Dmax %; for Dmax / DC50: 24 h; for DC50: read-out: SMARCA4 MSD MV411 degradation 24 h: Mean external-Abs DC50
T2 construct: SMARCA2/SMARCA4 protein degradation selectivity in MV4-11 cells; endogenous in cells; host or cells: MV4-11
T2 sequence (P51532 whole entry): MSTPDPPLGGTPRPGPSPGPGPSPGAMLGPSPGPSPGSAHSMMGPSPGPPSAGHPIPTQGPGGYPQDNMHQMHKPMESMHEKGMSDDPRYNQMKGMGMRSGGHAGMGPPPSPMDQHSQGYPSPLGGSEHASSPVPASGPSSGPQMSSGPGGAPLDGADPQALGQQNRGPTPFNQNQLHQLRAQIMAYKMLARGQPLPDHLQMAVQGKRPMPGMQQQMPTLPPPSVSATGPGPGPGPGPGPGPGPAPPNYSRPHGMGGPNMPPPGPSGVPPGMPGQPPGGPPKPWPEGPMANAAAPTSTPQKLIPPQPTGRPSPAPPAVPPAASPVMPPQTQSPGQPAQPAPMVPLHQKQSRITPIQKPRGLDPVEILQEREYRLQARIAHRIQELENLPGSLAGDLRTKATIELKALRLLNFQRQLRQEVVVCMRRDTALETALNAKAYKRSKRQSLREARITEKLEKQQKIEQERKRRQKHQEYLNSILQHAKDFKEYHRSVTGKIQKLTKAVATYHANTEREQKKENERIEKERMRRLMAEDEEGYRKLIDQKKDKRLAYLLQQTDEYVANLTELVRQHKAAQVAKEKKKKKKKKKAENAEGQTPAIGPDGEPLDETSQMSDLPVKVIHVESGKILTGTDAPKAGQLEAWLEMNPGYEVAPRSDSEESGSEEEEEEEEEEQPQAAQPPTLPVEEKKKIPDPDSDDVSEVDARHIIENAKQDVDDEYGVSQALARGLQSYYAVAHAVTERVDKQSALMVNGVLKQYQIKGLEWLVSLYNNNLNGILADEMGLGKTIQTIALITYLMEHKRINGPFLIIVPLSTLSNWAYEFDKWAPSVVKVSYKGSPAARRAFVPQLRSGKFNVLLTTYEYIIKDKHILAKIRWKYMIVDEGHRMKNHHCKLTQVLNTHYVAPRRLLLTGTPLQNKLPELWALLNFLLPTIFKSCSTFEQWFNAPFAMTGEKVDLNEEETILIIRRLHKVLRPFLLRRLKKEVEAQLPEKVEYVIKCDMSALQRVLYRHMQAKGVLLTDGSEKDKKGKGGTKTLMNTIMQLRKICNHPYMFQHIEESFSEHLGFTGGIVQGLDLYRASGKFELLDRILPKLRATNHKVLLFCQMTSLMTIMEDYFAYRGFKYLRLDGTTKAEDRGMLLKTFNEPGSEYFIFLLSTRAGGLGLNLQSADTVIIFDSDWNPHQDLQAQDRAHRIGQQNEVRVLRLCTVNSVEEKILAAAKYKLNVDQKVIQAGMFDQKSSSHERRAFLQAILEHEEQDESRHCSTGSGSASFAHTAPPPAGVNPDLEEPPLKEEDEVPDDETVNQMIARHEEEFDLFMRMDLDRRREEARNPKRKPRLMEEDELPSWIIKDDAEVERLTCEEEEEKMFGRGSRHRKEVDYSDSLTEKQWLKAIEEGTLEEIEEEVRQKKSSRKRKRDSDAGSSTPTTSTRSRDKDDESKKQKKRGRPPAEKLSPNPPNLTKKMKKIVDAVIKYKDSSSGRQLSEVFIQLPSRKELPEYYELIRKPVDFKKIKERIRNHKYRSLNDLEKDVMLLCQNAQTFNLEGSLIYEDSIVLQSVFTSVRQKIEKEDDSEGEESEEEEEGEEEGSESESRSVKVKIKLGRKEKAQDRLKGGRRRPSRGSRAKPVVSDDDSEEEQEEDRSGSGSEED
How it was run: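 24 h compound exposure, MV4-11; RIPA lysates → SDS-PAGE → NC membrane; anti-SMARCA2/BRM, anti-BRG1, β-actin loading control; LI-COR fluorescence read. DC50 and Dmax at 24 h reported as letter bins.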

SMARCA2 [2] = target: T1, SMARCA2; test: SMARCA2 Western blot degradation in MV4-11 cells; parameters: SMARCA2/SMARCA4 protein degradation selectivity in MV4-11 cells; endogenous in cells; host or cells: MV4-11; conditions: for Dmax: MV4-11, MV4-11 cells, read-out: SMARCA2 MSD MV411 degradation 24 h: average Dmax %; for DC50: read-out: SMARCA2 MSD MV411 degradation 24 h: Mean external-Abs DC50; for Selectivity in MV411: SMARCA2/4 selectivity

T1 sequence (P51531 whole entry): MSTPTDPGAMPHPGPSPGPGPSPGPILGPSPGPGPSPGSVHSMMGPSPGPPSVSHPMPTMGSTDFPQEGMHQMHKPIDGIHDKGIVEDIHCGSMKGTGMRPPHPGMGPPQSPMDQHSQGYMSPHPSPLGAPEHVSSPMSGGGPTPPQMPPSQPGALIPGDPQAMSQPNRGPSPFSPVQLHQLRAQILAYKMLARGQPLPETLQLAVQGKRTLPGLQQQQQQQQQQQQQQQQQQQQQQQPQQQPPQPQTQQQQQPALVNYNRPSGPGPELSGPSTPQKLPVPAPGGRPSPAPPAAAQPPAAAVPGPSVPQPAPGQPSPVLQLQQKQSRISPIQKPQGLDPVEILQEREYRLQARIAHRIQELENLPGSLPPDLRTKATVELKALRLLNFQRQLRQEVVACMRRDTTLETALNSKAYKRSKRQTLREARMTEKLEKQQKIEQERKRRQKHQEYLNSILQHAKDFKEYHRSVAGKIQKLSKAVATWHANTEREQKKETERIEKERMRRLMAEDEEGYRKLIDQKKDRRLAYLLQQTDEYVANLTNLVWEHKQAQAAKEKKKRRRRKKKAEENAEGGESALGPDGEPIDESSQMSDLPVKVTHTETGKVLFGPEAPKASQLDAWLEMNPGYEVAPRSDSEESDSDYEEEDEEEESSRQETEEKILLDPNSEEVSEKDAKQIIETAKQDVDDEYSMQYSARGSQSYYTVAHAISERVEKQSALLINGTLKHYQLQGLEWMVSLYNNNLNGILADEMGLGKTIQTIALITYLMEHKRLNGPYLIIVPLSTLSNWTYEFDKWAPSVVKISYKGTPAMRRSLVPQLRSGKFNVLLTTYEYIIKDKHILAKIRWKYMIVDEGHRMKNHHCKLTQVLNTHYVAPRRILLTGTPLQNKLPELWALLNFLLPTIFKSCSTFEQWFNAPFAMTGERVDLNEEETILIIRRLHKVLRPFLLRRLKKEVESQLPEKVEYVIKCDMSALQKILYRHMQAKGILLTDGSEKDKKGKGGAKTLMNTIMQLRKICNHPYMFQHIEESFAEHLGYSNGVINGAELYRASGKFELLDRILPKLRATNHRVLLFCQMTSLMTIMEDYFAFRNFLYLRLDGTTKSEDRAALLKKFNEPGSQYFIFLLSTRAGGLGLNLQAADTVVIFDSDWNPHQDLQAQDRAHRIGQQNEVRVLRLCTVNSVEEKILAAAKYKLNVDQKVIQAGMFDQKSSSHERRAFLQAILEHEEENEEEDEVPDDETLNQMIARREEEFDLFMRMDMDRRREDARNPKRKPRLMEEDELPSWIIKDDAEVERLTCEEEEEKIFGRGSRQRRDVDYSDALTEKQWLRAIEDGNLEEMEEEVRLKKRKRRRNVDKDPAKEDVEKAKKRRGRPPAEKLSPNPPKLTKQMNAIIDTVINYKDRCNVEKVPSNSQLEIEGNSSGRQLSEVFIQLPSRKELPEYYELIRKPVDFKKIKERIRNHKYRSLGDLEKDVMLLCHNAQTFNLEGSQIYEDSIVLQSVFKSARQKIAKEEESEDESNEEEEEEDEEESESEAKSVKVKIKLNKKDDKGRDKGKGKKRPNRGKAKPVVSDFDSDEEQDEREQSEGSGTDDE

Dmax (SMARCA2 [1]) [%]	DC50 (SMARCA2 [1]; A549 cells) [µM]	Dmax (SMARCA4) [%]	DC50 (SMARCA4; MV4-11 cells) [µM]	Dmax (SMARCA2 [2]; 24 h) [%]	DC50 (SMARCA2 [2]; MV4-11 cells, 24 h) [µM]	Selectivity in MV411 (SMARCA2 [2]; MV4-11 cells)	SMARCA2 MSD A549 degradation 24 h: Average Dmax % (SMARCA2 [1]; A549 cells)	SMARCA4 MSD MV411 degradation 24 h: average Dmax % (SMARCA4; MV4-11 cells)	SMARCA2 MSD MV411 degradation 24 h: average Dmax % (SMARCA2 [2]; MV4-11 cells, 24 h)	SMILES
	0.05 to 0.1		0.01 to 0.1		0.001 to 0.01	C (C (10-100 fold))				C#Cc1ccc(CNC(=O)[C@@H]2C[C@@H](O)CN2C(=O)[C@@H](NC(=O)[C@H]2CC3(C2)C[C@H](N2CCC(N4CCC(N5CCN6c7cc(-c8ccccc8O)nnc7NC[C@H]6C5)CC4)CC2)C3)C(C)(C)C)c(O)c1 (stereo partly shown) [I-242]
> 90	0.05 to 0.1	< 50	> 0.1	70 to 90	0.001 to 0.01	B (B (>100-500 fold))				C#Cc1ccc(CNC(=O)[C@@H]2C[C@@H](O)CN2C(=O)[C@@H](NC(=O)CCCCCCCN2CCC(N3CC4(CC(N5CCN6c7cc(-c8ccccc8O)nnc7NC[C@H]6C5)C4)C3)CC2)C(C)(C)C)cc1 [I-243]
> 90	0.01 to 0.05	70 to 90	> 0.1	> 90	0.01 to 0.1	C (C (10-100 fold))				C#Cc1ccc([C@H](C)NC(=O)[C@@H]2C[C@@H](O)CN2C(=O)[C@@H](NC(=O)N2CC3(C2)CN(C2CCN(c4cnc(N5CCc6[nH]c7nnc(-c8ccccc8O)cc7c6[C@H]5C)nc4)CC2)C3)C(C)(C)C)cc1 [I-249]
> 90	0.01 to 0.05	70 to 90	> 0.1	> 90	0.01 to 0.1	C (C (10-100 fold))				C#Cc1ccc([C@H](C)NC(=O)[C@@H]2C[C@@H](O)CN2C(=O)[C@@H](NC(=O)N2CC3(CC(N4CCC(c5cnc(N6CCc7[nH]c8nnc(-c9ccccc9O)cc8c7[C@H]6C)cn5)CC4)C3)C2)C(C)(C)C)cc1 [I-250]
> 90	> 0.1	< 50	> 0.1	70 to 90	0.01 to 0.1	B (B (>100-500 fold))				C#Cc1ccc(CNC(=O)[C@@H]2C[C@@H](O)CN2C(=O)[C@@H](NC(=O)CCCCCN2CCC(N3CC4(CC(N5CCN6c7cc(-c8ccccc8O)nnc7NC[C@H]6C5)C4)C3)CC2)C(C)(C)C)cc1 [I-251]
> 90	0.05 to 0.1	> 90	0.001 to 0.01	> 90	< 0.001	D (D (<10 fold))				C#Cc1ccc(CNC(=O)[C@@H]2C[C@@H](O)CN2C(=O)[C@@H](NC(=O)CN2CCC(N3CC4(CC(N5CCN6c7cc(-c8ccccc8O)nnc7NC[C@H]6C5)C4)C3)CC2)C(C)(C)C)cc1 [I-252, (2S,4R)—N-(4-ethynylbenzyl)-4-hydroxy-1-((S)-2-(2-(4-(6-((S)-2-(2-hydroxyphenyl)-6a,7,9,10-tetrahydro-5H-pyrazino[1′,2′:4,5]pyrazino[2,3-c]pyridazin-8(6H)-yl)-2-azaspiro[3.3]heptan-2-yl)piperidin-1-yl)acetamido)-3,3-dimethylbutanoyl)pyrrolidine-2-carboxamide]
70 to 90	0.05 to 0.1	< 50	> 0.1	50 to 70	0.01 to 0.1	B (B (>100-500 fold))				C#Cc1ccc(CNC(=O)[C@@H]2C[C@@H](O)CN2C(=O)[C@@H](NC(=O)N2CCN(C[C@H]3CC[C@H](N4CCC(N5CCN6c7cc(-c8ccccc8O)nnc7NC[C@H]6C5)CC4)CC3)CC2)C(C)(C)C)cc1 [I-254]

Continued, compound first:

SMILES	Dmax (SMARCA2 [1]) [%]	DC50 (SMARCA2 [1]; A549 cells) [µM]	Dmax (SMARCA4) [%]	DC50 (SMARCA4; MV4-11 cells) [µM]	Dmax (SMARCA2 [2]; 24 h) [%]	DC50 (SMARCA2 [2]; MV4-11 cells, 24 h) [µM]	Selectivity in MV411 (SMARCA2 [2]; MV4-11 cells)	SMARCA2 MSD A549 degradation 24 h: Average Dmax % (SMARCA2 [1]; A549 cells)	SMARCA4 MSD MV411 degradation 24 h: average Dmax % (SMARCA4; MV4-11 cells)	SMARCA2 MSD MV411 degradation 24 h: average Dmax % (SMARCA2 [2]; MV4-11 cells, 24 h)
C#Cc1ccc([C@H](C)NC(=O)[C@@H]2C[C@@H](O)CN2C(=O)[C@@H](NC(=O)N2CC3(CC(N4CCC(N5CCC(N6CCc7[nH]c8nnc(-c9ccccc9O)cc8c7[C@H]6C)CC5)CC4)C3)C2)C(C)(C)C)cc1 [I-212]	> 90	> 0.1	< 50	> 0.1	70 to 90	0.01 to 0.1	C (C (10-100 fold))			
C#Cc1ccc(CNC(=O)[C@@H]2C[C@@H](O)CN2C(=O)[C@@H](NC(=O)CN2CC3(CC(N4CCC(N5CCC(N6CCN7c8cc(-c9ccccc9O)nnc8NC[C@H]7C6)CC5)CC4)C3)C2)C(C)(C)C)cc1 [I-214, (2S,4R)—N-(4-ethynylbenzyl)-4-hydroxy-1-((S)-2-(2-(6-(4-((S)-2-(2-hydroxyphenyl)-6a,7,9,10-tetrahydro-5H-pyrazino[1′,2′:4,5]pyrazino[2,3-c]pyridazin-8(6H)-yl)-[1,4′-bipiperidin]-1′-yl)-2-azaspiro[3.3]heptan-2-yl)acetamido)-3,3-dimethylbutanoyl)pyrrolidine-2-carboxamide]	> 90	> 0.1	< 50	> 0.1	70 to 90	0.01 to 0.1	B (B (>100-500 fold))			
C#Cc1ccc(CNC(=O)[C@@H]2C[C@@H](O)CN2C(=O)[C@@H](NC(=O)N2CC3(CC(N4CCC(N5CCC(N6CCN7c8cc(-c9ccccc9O)nnc8NC[C@H]7C6)CC5)CC4)C3)C2)C(C)(C)C)cc1 [I-215]	> 90	0.05 to 0.1	70 to 90	0.01 to 0.1	> 90	0.001 to 0.01	C (C (10-100 fold))			
C#Cc1ccc(CNC(=O)[C@@H]2C[C@@H](O)CN2C(=O)[C@@H](NC(=O)N2CCN(CC3CCN([C@H]4CC[C@@H](N5CCN6c7cc(-c8ccccc8O)nnc7NC[C@H]6C5)CC4)CC3)CC2)C(C)(C)C)cc1 [I-216]	70 to 90	> 0.1	< 50	> 0.1	< 50	> 0.1	C (C (10-100 fold))			
C#Cc1ccc(CNC(=O)[C@@H]2C[C@@H](O)CN2C(=O)[C@@H](NC(=O)N2CCN(CC3CCN([C@H]4CC[C@H](N5CCN6c7cc(-c8ccccc8O)nnc7NC[C@H]6C5)CC4)CC3)CC2)C(C)(C)C)cc1 [I-217]	70 to 90	> 0.1	< 50	> 0.1	50 to 70	0.01 to 0.1	C (C (10-100 fold))			
C#Cc1ccc(CNC(=O)[C@@H]2C[C@@H](O)CN2C(=O)[C@@H](NC(=O)N2CCO[C@@H](CN3CCC(N4CCC(N5CCN6c7cc(-c8ccccc8O)nnc7NC[C@H]6C5)CC4)CC3)C2)C(C)(C)C)cc1 [I-218]	50 to 70	> 0.1	< 50	> 0.1	< 50	> 0.1	C (C (10-100 fold))			
C#Cc1ccc(CNC(=O)[C@@H]2C[C@@H](O)CN2C(=O)[C@@H](NC(=O)N2CCO[C@H](CN3CCC(N4CCC(N5CCN6c7cc(-c8ccccc8O)nnc7NC[C@H]6C5)CC4)CC3)C2)C(C)(C)C)cc1 [I-219]	50 to 70	> 0.1	< 50	> 0.1	< 50	> 0.1	C (C (10-100 fold))			
C#Cc1ccc(CNC(=O)[C@@H]2C[C@@H](O)CN2C(=O)[C@@H](NC(=O)[C@H]2CCC3(CC2)C[C@H](N2CCC(N4CCC(N5CCN6c7cc(-c8ccccc8O)nnc7NC[C@H]6C5)CC4)CC2)C3)C(C)(C)C)c(Cl)c1 (stereo partly shown) [I-222]		> 0.1		> 0.1		0.01 to 0.1	B (B (>100-500 fold))	A (A (>90% degradation))	D (D (<50% degradation))	B (B (>70-90% degradation))
C#Cc1ccc(CNC(=O)[C@@H]2C[C@@H](O)CN2C(=O)[C@@H](NC(=O)N2CC3(CC(N4CCC(N5CC6(CC(N7CCN8c9cc(-c%10ccccc%10O)nnc9NC[C@H]8C7)C6)C5)CC4)C3)C2)C(C)(C)C)cc1 [I-224]	> 90	0.05 to 0.1	70 to 90	0.01 to 0.1	70 to 90	0.001 to 0.01	C (C (10-100 fold))			
C#Cc1ccc(CNC(=O)[C@@H]2C[C@@H](O)CN2C(=O)[C@@H](NC(=O)N2CC3(CC(N4CCC(c5cnc(N6CCc7[nH]c8nnc(-c9ccccc9O)cc8c7[C@@H]6C)nc5)CC4)C3)C2)C(C)(C)C)c(OCCCOC)c1 [I-227]	> 90	0.05 to 0.1	> 90	> 0.1	70 to 90	0.01 to 0.1	D (D (<10 fold))			
C#Cc1ccc(CNC(=O)[C@@H]2C[C@@H](O)CN2C(=O)[C@@H](NC(=O)N2CC3(CC(N4CCC(c5cnc(N6CCc7[nH]c8nnc(-c9ccccc9O)cc8c7[C@@H]6C)nc5)CC4)C3)C2)C(C)(C)C)cc1 [I-228]	> 90	> 0.1	> 90	> 0.1	70 to 90	0.01 to 0.1	D (D (<10 fold))			
C#Cc1ccc(CNC(=O)[C@@H]2C[C@@H](O)CN2C(=O)[C@@H](NC(=O)[C@H]2CC3(C2)C[C@H](N2CCN(C(=O)CN4CCN5c6cc(-c7ccccc7O)nnc6NC[C@H]5C4)CC2)C3)C(C)(C)C)cc1 (stereo partly shown) [I-240]		> 0.1		0.01 to 0.1		0.001 to 0.01	D (D (<10 fold))			
